Results from patent US20160346202A1, “Composition for Vectorizing an Anti-Cancer Agent” (GUERBET, priority 2014, published 2016).

What was measured:
[1] = Visual stability (phase separation) of the emulsion; type: physicochemical; settings: comparative emulsions not in accordance with the invention
Protocol: The emulsion according to the invention is advantageously stable. The term “stable emulsion” is intended to mean an emulsion having, under conventional temperature (20° C.) and atmospheric pressure (1 bar) conditions and within 24 hours following its preparation, a visual phase separation of less than 5% by volume relative to the total composition in emulsion form. […] Visual phase separation manifests itself when a solution no longer appears uniform to the eye, i.e. when the appearance of at least two phases is observed.

[2] = Plasma kinetics of the anti-cancer agent after intra-arterial (TACE) injection, rat with N1-S1 tumor; type: in vivo, female Sprague-Dawley rats; settings: female, Sprague-Dawley, rat N1-S1 model
Protocol: The tumor induction method described in Garin et al. (Lab Anim. 2005 July; 39(3): 314-20) was used on female Sprague-Dawley rats (supplier Dépré or Janvier, France), anesthetized beforehand.
6×10^6 N1-S1 rat hepatocellular carcinoma tumor cells (deposited at ATCC under the reference CRLL-1604™, also called Novikoff cells) suspended in 100 μl of IMDM medium (Iscove's Modified Dulbecco's Medium) were administered under the hepatic capsule of the left lateral lobe of the female rats, by slow injection over the course of approximately 50 seconds. […]
The plasma doxorubicin assay was carried out in the heparinized rat plasma by high performance liquid chromatography (or HPLC), the chromatograph being equipped with a fluorescence detector. […] 10 μl of the extract were analyzed by reverse-phase HPLC on a Zorbax 300SB-C18 4.6×150 mm, 3.5 μm column (with a Zorbax 300SB-C18 4.6×12.5 mm, 5 μm precolumn) and fluorimetric detection (excitation wavelength 480 nm, emission wavelength 560 nm).
The analysis was carried out over the course of 30 minutes with a 5 mM ammonium acetate, pH 3.5/acetonitrile gradient. […] When the area of the HPLC peak was greater than the upper limit of quantification, 5 μl were injected instead of 10 μl in order to obtain an area of doxorubicin included in the range. […]

[3] = Plasma kinetics of doxorubicin after TACE, VX2 rabbits; type: in vivo, New Zealand rabbits; settings: intra-arterial injection 300 μl, mean (±SD)
Protocol: The tumor induction method described by Hong et al. (Clin Cancer Res 2006; 12 (8): 2563-2567) was used on New Zealand rabbits (NZ; supplier Charles River, France), anesthetized beforehand.
Fragments of VX2 tumor tissues are implanted (a fragment of 25 mg/per liver of NZ rabbit) under the hepatic capsule of the left lateral lobe of the rabbits. These rabbits with a tumor in the left hepatic lobe will subsequently be referred to as “VX2 rabbits”.
19 days after having carried out the tumor induction method, the TACE is carried out. Thus, the products (volume: 300 μl) are injected into the pre-anesthetized animals, using a catheter guided by fluoroscopy (X-ray imaging) via the femoral artery and brought up to the artery feeding the hepatic tumor (injection only where selectivity has been achieved). The TACE is carried out in a dedicated room and under conditions close to clinical practice (interventional radiology).
Blood samples of 300 μl at times 0, 5, 15, 30 or 45 minutes after intra-arterial injection were taken after catheterization of the ear vein. 200 μl of plasma after centrifugation were then recovered and heparinized for assaying the anti-cancer agent. A study of the plasma kinetics of the anti-cancer agent was thus carried out.
The plasma doxorubicin assay was carried out in the heparinized plasma of VX2 rabbits under the same conditions as those described above. […]

Molecule | Observations: phase separation / stability [1] | concentration at 45 min ([2]; 45 min after intra-arterial injection, read-out: Plasma doxorubicin concentration at 45 min) [ng/mL] | concentration at 5 min ([2]; intra-arterial injection 100 μl, 0.5 mg anti-cancer agent, average) [ng/mL] | concentration at 5 min ([3]; New Zealand, rabbit, plasma, read-out: Plasma concentration of the anti-cancer agent 5 minutes after injection) [ng/mL] | Plasma concentration of the anti-cancer agent 5 minutes after injection ([3]; listed as Control doxorubicin alone given IA) [ng/mL]
Span® 85 | underwent phase separation immediately after they were prepared |  |  |  | 
Span® 20 | underwent phase separation immediately after they were prepared |  |  |  | 
Span® 83 | underwent phase separation immediately after they were prepared |  |  |  | 
COc1cccc2c1C(=O)c1c(O)c3c(c(O)c1C2=O)C[C@@](O)(C(=O)CO)C[C@@H]3O[C@H]1C[C@H](N)[C@H](O)[C@H](C)O1 [Control doxorubicin alone, doxorubicin] |  | 112 | 2450 | 563 ± 282 | 563 ± 282
